≈ marks a conversion by molar mass, not a printed value.
Tests used:
Type in all cases: cell-based
Bacillus subtilis = assay: MIC by standard dilution method (NCCLS 1990), Bacillus subtilis; conditions: 35° C., 24 h incubation
Description: (§1) To determine minimum inhibitory concentration (MIC) of the xenomins, the standard dilution method was used as outlined by The National Committee for Clinical Laboratory Standards (1990) for testing antibiotics. The tests were coducted at 35° C. and the MICs were determined after 24 h incubation.

[1] = tested on: Staphylococcus aureus ATCC 29213; assay: MIC by standard dilution method (NCCLS 1990), Staphylococcus aureus ATCC 29213; conditions: ATCC29213, 35° C., 24 h incubation
Description: as §1

S. aureus 0012 = assay: MIC by standard dilution method (NCCLS 1990), S. aureus 0012 (methicillin-resistant clinical isolate); conditions: Staphylococcus aureus; S. aureus 0012, clinical isolate of methicillin-resistant strain; 35° C., 24 h incubation
Description: as §1
(§2) *clinical isolates of methicillinresistant strain.

S. aureus 0017 = assay: MIC by standard dilution method (NCCLS 1990), S. aureus 0017 (methicillin-resistant clinical isolate); conditions: Staphylococcus aureus; S. aureus 0017, clinical isolate of methicillin-resistant strain; 35° C., 24 h incubation
Description: as §1, §2

[2] = tested on: Candida tropicalis CBS 94; assay: MIC by standard dilution method (NCCLS 1990), Candida tropicalis CBS 94; conditions: CBS94, 35° C., 24 h incubation
Description: as §1

[3] = tested on: Cryptococcus neoformans ATCC14117; assay: MIC by standard dilution method (NCCLS 1990), Cryptococcus neoformans ATCC14117; conditions: 35° C., 24 h incubation
Description: as §1

human colon cancer HT-29 = assay: Antineoplastic activity in vitro, method of Skehan et al. (1990), HT-29; conditions: HT29 cells
Description: (§3) The antineoplastic activities of xenomins have been determined in vitro in cell cultures of human colon cancer HT-29, breast cancer MCF-7 and cervical cancer Hela. The tests were carried out using the method described by Skehan et al. (1990).

breast cancer MCF-7 = assay: Antineoplastic activity in vitro, method of Skehan et al. (1990), MCF-7; conditions: Homo sapiens, MCF7, MCF-7 cells
Description: as §3

cervical cancer Hela = assay: Antineoplastic activity in vitro, method of Skehan et al. (1990), Hela; conditions: Homo sapiens, Hela cells
Description: as §3

Row | MIC (Bacillus subtilis) [µg/mL] | MIC [1] [µg/mL] | MIC (S. aureus 0012) [µg/mL] | MIC (S. aureus 0017) [µg/mL] | MIC [2] [µg/mL] | MIC [3] [µg/mL] | IC50 (human colon cancer HT-29) [µg/mL] | IC50 (breast cancer MCF-7) [µg/mL] | IC50 (cervical cancer Hela) [µg/mL] | Compound
1 | 5 (≈ 16.6 µM) | 20 (≈ 66.6 µM) | 10 (≈ 33.3 µM) | 10 (≈ 33.3 µM) | 100 (≈ 333 µM) | 13 (≈ 43.3 µM) | 0.14 (≈ 0.466 µM) | 1.37 (≈ 4.56 µM) | 0.24 (≈ 0.799 µM) | CCCCCC(=O)Nc1c2[s+]([O-])scc-2n(C)c1=O (single isomer, unassigned) [Xenomin 1]
2 | 41 (≈ 130 µM) | 41 (≈ 130 µM) | 41 (≈ 130 µM) | 41 (≈ 130 µM) | > 100 | 25 (≈ 79.5 µM) | 0.34 (≈ 1.08 µM) | 1.74 (≈ 5.53 µM) | 0.65 (≈ 2.07 µM) | CC(C)CCCC(=O)Nc1c2[s+]([O-])scc-2n(C)c1=O (single isomer, unassigned) [Xenomin 2]

Source: patent US5827872A, “Xenomins novel heterocyclic compounds with antimicrobial and antneoplastic properties” (priority 1996, dated 1998)
